Experimental data: ChEMBL document CHEMBL1201862, “PubChem BioAssay data set” (2004)
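Where inhibition never reached the appropriate level, the endpoint shown equals the highest concentration tested. Otherwise, values were interpolated linearly from a five-concentration, 48-hour dose response in 96-well plates. GI50 is the concentration that inhibits growth by half.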 Calls of active or inactive are those of the source. No stated cut-off is given here; in the data, active = GI50 up to about 1.1 µM and inactive = higher.

What was measured:
Experiment in all cases: DTP human tumour cell line panel, 48 h
T47D = system: T47D
CAKI-1 = system: CAKI-1
MDA-MB-231 = system: MDA-MB-231
NCI-H226 = system: NCI-H226
SK-MEL-28 = system: SK-MEL-28
RPMI-8226 = system: RPMI-8226
UACC-257 = system: UACC-257
OVCAR-3 = system: OVCAR-3
Hs-578T = system: Hs-578T
SR = system: SR
SK-OV-3 = system: SK-OV-3
SK-MEL-2 = system: SK-MEL-2
HCC 2998 = system: HCC 2998
UO-31 = system: UO-31
SNB-19 = system: SNB-19
SN12C = system: SN12C
IGROV-1 = system: IGROV-1
MCF7 = system: MCF7
786-0 = system: 786-0
OVCAR-8 = system: OVCAR-8

Compound	GI50 (T47D)	GI50 (CAKI-1)	GI50 (MDA-MB-231)	GI50 (NCI-H226)	GI50 (SK-MEL-28)	GI50 (RPMI-8226)	GI50 (UACC-257)	GI50 (OVCAR-3)	GI50 (Hs-578T)	GI50 (SR)	GI50 (SK-OV-3)	GI50 (SK-MEL-2)	GI50 (HCC 2998)	GI50 (UO-31)	GI50 (SNB-19)	GI50 (SN12C)	GI50 (IGROV-1)	GI50 (MCF7)	GI50 (786-0)	GI50 (OVCAR-8)
O=[N+]([O-])c1cc(-[n+]2cc([O-])on2)ccc1F	2.49 µM (inactive)	2.11 µM (inactive)	18.7 µM (inactive)	23.4 µM (inactive)	15.4 µM (inactive)	8.97 µM (inactive)	16.8 µM (inactive)	17 µM (inactive)	26.7 µM (inactive)	6.24 µM (inactive)	20.4 µM (inactive)	15.6 µM (inactive)	14.4 µM (inactive)	3.58 µM (inactive)	7.82 µM (inactive)	16.7 µM (inactive)	14.7 µM (inactive)	12.8 µM (inactive)	11.7 µM (inactive)	16.4 µM (inactive)
CC[C@]1(Cc2ccc(OC)c(OC)c2)CN(S(=O)(=O)c2ccc(C)cc2)C[C@@H]1OC(C)=O	58.5 µM (inactive)	95.7 µM (inactive)	> 100 µM (inactive)	> 100 µM (inactive)	> 100 µM (inactive)	> 100 µM (inactive)	> 100 µM (inactive)	67.8 µM (inactive)	> 100 µM (inactive)	> 100 µM (inactive)	64.6 µM (inactive)	> 100 µM (inactive)	> 100 µM (inactive)	> 100 µM (inactive)	> 100 µM (inactive)	–	85.5 µM (inactive)	> 100 µM (inactive)	39.2 µM (inactive)	58.7 µM (inactive)
CCOC(=O)c1c(N2CCOCC2)[nH]c(=O)c(C(c2ccc(N(C)C)cc2)c2c(O)c(C(=O)OCC)c(N3CCOCC3)[nH]c2=O)c1O	> 100 µM (inactive)	> 100 µM (inactive)	> 100 µM (inactive)	> 100 µM (inactive)	> 100 µM (inactive)	46.6 µM (inactive)	> 100 µM (inactive)	> 100 µM (inactive)	> 100 µM (inactive)	> 100 µM (inactive)	> 100 µM (inactive)	> 100 µM (inactive)	> 100 µM (inactive)	> 100 µM (inactive)	> 100 µM (inactive)	> 100 µM (inactive)	–	> 100 µM (inactive)	> 100 µM (inactive)	> 100 µM (inactive)
O=C(/C=C1\Nc2ccc([N+](=O)[O-])cc2N\C1=C/C(=O)c1ccc(F)cc1)c1ccc(F)cc1	82.8 µM (inactive)	48.1 µM (inactive)	16 µM (inactive)	27.1 µM (inactive)	> 100 µM (inactive)	20.9 µM (inactive)	> 100 µM (inactive)	25 µM (inactive)	14.9 µM (inactive)	16.8 µM (inactive)	17.9 µM (inactive)	17.2 µM (inactive)	80 µM (inactive)	> 100 µM (inactive)	23.1 µM (inactive)	90.2 µM (inactive)	40 µM (inactive)	52.8 µM (inactive)	12.9 µM (inactive)	> 100 µM (inactive)
CC[C@H](C)C(=O)O[C@H]1CCC=C2C=C[C@H](C)[C@H](CC[C@@H]3C[C@@H](O)CC(=O)O3)[C@H]21 [MEVASTATIN]	> 82.8 µM (inactive)	3.37 µM (inactive)	3.85 µM (inactive)	25.4 µM (inactive)	60.7 µM (inactive)	20 µM (inactive)	50.4 µM (inactive)	30.4 µM (inactive)	3.42 µM (inactive)	8.73 µM (inactive)	44.3 µM (inactive)	5.77 µM (inactive)	25.6 µM (inactive)	9.06 µM (inactive)	16.4 µM (inactive)	> 78.9 µM (inactive)	4.43 µM (inactive)	20.3 µM (inactive)	13.3 µM (inactive)	8.26 µM (inactive)
COc1cc2oc3c(c(=O)c2c(O)c1/C=C/C(C)C)CCC(C)(C)Oc1cc(O)ccc1-3	33.9 µM (inactive)	16.5 µM (inactive)	16.6 µM (inactive)	–	14.8 µM (inactive)	20 µM (inactive)	14.3 µM (inactive)	15.6 µM (inactive)	10.4 µM (inactive)	4.78 µM (inactive)	16.7 µM (inactive)	16.6 µM (inactive)	14.4 µM (inactive)	13.1 µM (inactive)	16.1 µM (inactive)	13.6 µM (inactive)	17.7 µM (inactive)	13.3 µM (inactive)	14.9 µM (inactive)	15.5 µM (inactive)
COc1cc2c(cc1O)NC(=S)[C@@H]1CCCN1C2=O	> 100 µM (inactive)	> 100 µM (inactive)	> 100 µM (inactive)	> 100 µM (inactive)	> 100 µM (inactive)	> 100 µM (inactive)	> 100 µM (inactive)	> 100 µM (inactive)	> 100 µM (inactive)	50.1 µM (inactive)	> 100 µM (inactive)	> 100 µM (inactive)	> 100 µM (inactive)	> 100 µM (inactive)	> 100 µM (inactive)	> 100 µM (inactive)	> 100 µM (inactive)	> 100 µM (inactive)	> 100 µM (inactive)	> 100 µM (inactive)
CC(=O)O[C@H]1C(=O)[C@@]2(C)[C@H]([C@H](OC(=O)c3ccccc3)[C@]3(O)C[C@H](OC(=O)[C@H](O)[C@@H](NC(=O)c4ccccc4)c4ccc5ccccc5c4)C(C)=C1C3(C)C)[C@]1(OC(C)=O)CO[C@@H]1C[C@@H]2O	2.16 µM (inactive)	1.59 µM (inactive)	0.0476 µM (active)	–	0.132 µM (active)	0.0229 µM (active)	0.0826 µM (active)	0.0362 µM (active)	0.0191 µM (active)	0.0239 µM (active)	0.0248 µM (active)	0.0362 µM (active)	0.0457 µM (active)	2.39 µM (inactive)	0.279 µM (active)	0.0681 µM (active)	0.0467 µM (active)	0.00966 µM (active)	0.153 µM (active)	0.091 µM (active)
Cc1ccc(Nc2nc(=O)[nH]c(=O)[nH]2)cc1N=[N+]=[N-]	> 100 µM (inactive)	> 100 µM (inactive)	> 100 µM (inactive)	> 100 µM (inactive)	–	> 100 µM (inactive)	> 100 µM (inactive)	> 100 µM (inactive)	> 100 µM (inactive)	> 100 µM (inactive)	> 100 µM (inactive)	> 100 µM (inactive)	> 100 µM (inactive)	> 100 µM (inactive)	> 100 µM (inactive)	> 100 µM (inactive)	> 100 µM (inactive)	> 100 µM (inactive)	> 100 µM (inactive)	> 100 µM (inactive)
CN1CCN(c2n[nH]c(=O)c3c2nnn3C2CCCCC2)CC1	> 100 µM (inactive)	> 100 µM (inactive)	> 100 µM (inactive)	> 100 µM (inactive)	> 100 µM (inactive)	> 100 µM (inactive)	> 100 µM (inactive)	> 100 µM (inactive)	> 100 µM (inactive)	> 100 µM (inactive)	–	> 100 µM (inactive)	> 100 µM (inactive)	> 100 µM (inactive)	> 100 µM (inactive)	> 100 µM (inactive)	> 100 µM (inactive)	> 100 µM (inactive)	> 100 µM (inactive)	> 100 µM (inactive)
CC1(C)Oc2ccc3c(=O)cc(-c4ccccc4)oc3c2C1C(=O)O (configuration not stated)	> 100 µM (inactive)	> 100 µM (inactive)	> 100 µM (inactive)	> 100 µM (inactive)	–	–	> 100 µM (inactive)	> 100 µM (inactive)	> 100 µM (inactive)	> 100 µM (inactive)	> 100 µM (inactive)	> 100 µM (inactive)	> 100 µM (inactive)	–	–	> 100 µM (inactive)	> 100 µM (inactive)	> 100 µM (inactive)	> 100 µM (inactive)	> 100 µM (inactive)
CC[C@H](C)[C@H](NC(=O)[C@H](Cc1ccc(O)cc1)NCC(F)(F)F)C(=O)OC(C)(C)C	4.51 µM (inactive)	7.01 µM (inactive)	7.28 µM (inactive)	9.06 µM (inactive)	9.38 µM (inactive)	6.64 µM (inactive)	6.82 µM (inactive)	–	10.3 µM (inactive)	5.97 µM (inactive)	8.11 µM (inactive)	6.53 µM (inactive)	7.29 µM (inactive)	7.64 µM (inactive)	7.96 µM (inactive)	8.81 µM (inactive)	7.5 µM (inactive)	7.74 µM (inactive)	8.15 µM (inactive)	12.4 µM (inactive)
COc1c(-c2nc3ccc(N4CCN(C)CC4)nc3[nH]2)cc(OC)c2[nH]c(CO)nc12	37.1 µM (inactive)	> 100 µM (inactive)	44.1 µM (inactive)	36.1 µM (inactive)	> 100 µM (inactive)	–	> 100 µM (inactive)	39.3 µM (inactive)	> 100 µM (inactive)	> 100 µM (inactive)	> 100 µM (inactive)	32 µM (inactive)	38.2 µM (inactive)	> 100 µM (inactive)	42.6 µM (inactive)	53 µM (inactive)	> 100 µM (inactive)	11.2 µM (inactive)	69.3 µM (inactive)	> 100 µM (inactive)
ClCc1nc2ccccc2[nH]1	> 100 µM (inactive)	> 100 µM (inactive)	> 100 µM (inactive)	> 100 µM (inactive)	> 100 µM (inactive)	> 100 µM (inactive)	> 100 µM (inactive)	> 100 µM (inactive)	> 100 µM (inactive)	56 µM (inactive)	–	> 100 µM (inactive)	> 100 µM (inactive)	> 100 µM (inactive)	> 100 µM (inactive)	> 100 µM (inactive)	> 100 µM (inactive)	99.1 µM (inactive)	> 100 µM (inactive)	> 100 µM (inactive)
